Laboratory results as given in EP0155244A2, “1-Ethyl-6-fluoro-7-(1H-pirrol-1-yl)-1,4-dihydro-4-oxoquinoline-3-carboxylic acid: preparation and antimicrobial activities” (priority 1985, dated 1985).
Values after ≈ are worked out from the molar mass of the structure shown. Where two headings read alike, the source gives them in different places.

Assays:
[1] = test system: Proteus spp; experiment: In vitro antibacterial activity, M.I.C. by serial twofold dilution method on Mueller-Hinton agar; format: cell-based
Protocol: (§1) Derivatives (1) and (9) were tested for the in vitro antibacterial activities against Gram-positive and Gram-negative bacteria.Nalidixic acid,pipemidic acid,- piromidic acid and enoxacin were used as positive controls for antibacterial activities.
(§2) Minimum inhibitory concentrations (M.I.C.s) were determined using the serial twolfold dilution method; lectures were performed after incubation at 37° for 18 hours.
(§3) For the experiments the substances were dissolved in NaOH 0.1 N(10 mg/ml);further dilutions in the test medium furnished the required concentrations, generally in the range from 0. 05µg/ml to 100 µg/ml.
(§4) The cultures were obtained on B.H.I. (B.B.L.) after 18 hours incubation at 37°.Tests were carried out using Mueller-Hinton agar (B.B.L.) and inocula were 10^4 bacteria.
(§5) Media M.I.C. values nX (c at least 200 max µg/ml) were calculated by the equation [formula] where si is the number of sensitive strains at the given concentration ci and st is the whole number of the sensitive strains.
(§6) Strains with M.I.C.>200µg/ml are regarded as resistant (R) and are expressed in percentage (%) by the equation : [formula] where N is the whole number of tested strains and N is t s the number of sensitive strains.
(§7) The following species of bacteria freshly isolated from various clinical specimens were tested: 16 strains of […], 10 strains of Staphylococcus spp, 15 strains of Streptococcus ovalis,3 strains of Streptococcus spp, 18 strains of Klebsiella pneumoniae,20 strains of Escherichia coli,ll strains of Salmonella spp (3 S.typhi,l S.paratyphi A,S.paratyphi B, 4 S enteritidis, 1 S.wien and S.infantis,42 strains of Proteus spp (28 P.mirabilis, 8 P.vulgaris,3 P.rettgeri,2 P.morganii and 1 Providencia ) and 8 strains of Pseudomonas aeruginosa.

[2] = test system: Escherichia coli; experiment: as above; format: cell-based; conditions: E.Coli, 20 strains, pH 7.2, reading 18 h after incubation at 37°C; for MIC: Escherichia coli
Protocol: as §1, §2, §3, §4, §5, §6, §7

[3] = test system: Streptococcus spp; experiment: as above; format: cell-based; conditions: 3 strains, pH 7.2, reading 18 h after incubation at 37°C
Protocol: as §1, §2, §3, §4, §5, §6, §7

[4] = test system: Salmonella spp; experiment: as above; format: cell-based; conditions: 11 strains, pH 7.2, reading 18 h after incubation at 37°C
Protocol: as §1, §2, §3, §4, §5, §6, §7

[5] = test system: Klebsiella pneumoniae; experiment: as above; format: cell-based; conditions: 18 strains, pH 7.2, reading 18 h after incubation at 37°C
Protocol: as §1, §2, §3, §4, §5, §6, §7

[6] = test system: Staphylococcus pyogenes; experiment: as above; format: cell-based; conditions: 16 strains, pH 7.2, reading 18 h after incubation at 37°C; for MIC: Staphylococcus aureus
Protocol: as §1, §2, §3, §4, §5, §6, §7

[7] = test system: Pseudomonas aeruginosa; experiment: as above; format: cell-based; conditions: for R% = percentage of resistant strains / MIC: Pseudomonas aeruginosa, 8 strains, pH 7.2, reading 18 h after incubation at 37°C
Protocol: as §1, §2, §3, §4, §5, §6, §7

[8] = test system: Staphylococcus spp; experiment: as above; format: cell-based; conditions: 10 strains, pH 7.2, reading 18 h after incubation at 37°C
Protocol: as §1, §2, §3, §4, §5, §6, §7

[9] = test system: Streptococcus ovalis; experiment: as above; format: cell-based; conditions: 15 strains, pH 7.2, reading 18 h after incubation at 37°C
Protocol: as §1, §2, §3, §4, §5, §6, §7

[10] = test system: Enterobacteriaceae; experiment: In vitro antibacterial activity, summary for Enterobacteriaceae; format: cell-based
Protocol: as §1, §2, §3, §4, §5
Strains with M.I.C.>200µg/ml are regarded as resistant (R) and are expressed in percentage (%) by the equation : [formula] where N is the whole number of tested strains and N is t s the number of sensitive strains. […]

[11] = test system: Gram-positive bacteria; experiment: In vitro antibacterial activity, summary for Gram-positive bacteria; format: cell-based, Staphylococcus and Streptococcus
Protocol: as §1, §2, §3, §4, §5, §6, §7

[12] = Proteus spp, 42 strains, pH 7.2, reading 18 h after incubation at 37°C
[13] = Proteus spp, 42 strains, pH 7.2, reading 18 h after incubation at 37°C, read-out: nX̄ = MIC mean values of sensitive strains
[14] = read-out: nX̄ = MIC mean values of sensitive strains

Row | SMILES | R% = percentage of resistant strains [1, 12] [%] | MIC [1, 13] [µg/mL] | MIC [2, 14] [µg/mL] | MIC [3, 14] [µg/mL] | MIC ([3]; read-out: range (MIC)) [µg/mL] | MIC [4, 14] [µg/mL] | MIC ([4]; read-out: range (MIC)) [µg/mL] | MIC [5, 14] [µg/mL] | MIC ([5]; read-out: range (MIC)) [µg/mL] | MIC [6, 14] [µg/mL] | MIC ([6]; read-out: range (MIC)) [µg/mL] | R% = percentage of resistant strains [7] [%] | MIC [7, 14] [µg/mL] | MIC [8, 14] [µg/mL] | MIC ([8]; read-out: range (MIC)) [µg/mL] | MIC [9, 14] [µg/mL] | MIC ([9]; read-out: range (MIC)) [µg/mL] | R% (resistant strains) [11] [%] | R% = percentage of resistant strains [2] [%] | R% = percentage of resistant strains [4] [%] | other results
1 | CCn1cc(C(=O)O)c(=O)c2cc(F)c(-n3cccc3)cc21 [Acid (1), l-Ethyl-6-fluoro-l,4-dihydro-4-oxo-7-(lH-pyrrol-l-yl)quinoline-3-carboxylic acid] | 0 | 6.46 (≈ 21.5 µM) | 2 (≈ 6.66 µM) | 0.2 (≈ 0.666 µM) | 0.2 (≈ 0.666 µM) | 1.3 (≈ 4.33 µM) | 0.1 to 3.12 (≈ 0.333 to 10.4 µM) | 3.4 (≈ 11.3 µM) | 0.8 to 25 (≈ 2.66 to 83.3 µM) | 1.96 (≈ 6.53 µM) | 0.1 to 12.5 (≈ 0.333 to 41.6 µM) | 12.5 | 5.6 (≈ 18.6 µM) | 1.26 (≈ 4.2 µM) | 0.1 to 3.12 (≈ 0.333 to 10.4 µM) | 8.4 (≈ 28 µM) | 0.8 to 100 (≈ 2.66 to 333 µM) | 0 |  |  | range (MIC) [1, 12]: <0.1 to 100 µg/mL; activity against Proteus spp (in words) ([1]; from comparative examination of R% and nX data): highly active; MIC ([2]; read-out: range (MIC)): 0.2 to 12.5 µg/mL (≈ 0.666 to 41.6 µM); activity against Pseudomonas aeruginosa (in words) ([7]; from comparative examination of R% and nX data, not so active as enoxacin): very active; R% (resistant strains) [10]: 0%
2 | CCn1cc(C(=O)O)c(=O)c2cc(F)c(N3CCCC3)cc21 [Acid (9), 1-Ethyl-6-fluoro-1,4-dihydro-4-oxo-7-(pyrrolidin-1-yl) quinoline-3-carboxylic acid] | 7 | 4.76 (≈ 15.6 µM) | 3.83 (≈ 12.6 µM) | 2.2 (≈ 7.23 µM) | 0.4 to 3.12 (≈ 1.31 to 10.3 µM) | 2.78 (≈ 9.14 µM) | 0.2 to 6.25 (≈ 0.657 to 20.5 µM) | 12.7 (≈ 41.6 µM) | 3.12 to 25 (≈ 10.3 to 82.2 µM) | 5.95 (≈ 19.6 µM) | 0.4 to 25 (≈ 1.31 to 82.2 µM) | 12.5 | 9.87 (≈ 32.4 µM) | 3.98 (≈ 13.1 µM) | 0.8 to 6.25 (≈ 2.63 to 20.5 µM) | 6.2 (≈ 20.4 µM) | 3.12 to 25 (≈ 10.3 to 82.2 µM) | 0 | 10 |  | R% (resistant strains) [10]: 0%
3 | CCn1cc(C(=O)O)c(=O)c2ccc(C)nc21 [Nalidixic acid, nalidixic acid] | 33 | 6.58 (≈ 28.3 µM) | 12.4 (≈ 53.4 µM) |  | > 100 | 5.2 (≈ 22.4 µM) |  | 12.9 (≈ 55.5 µM) |  | 100 (≈ 431 µM) |  | 50 | 5.46 (≈ 23.5 µM) | 25.6 (≈ 110 µM) |  | 3.12 (≈ 13.4 µM) |  |  | 25 | 18 | R% = percentage of resistant strains [3]: 100%; R% = percentage of resistant strains [5]: 22%; R% = percentage of resistant strains [6]: 94%; R% = percentage of resistant strains [8]: 50%; R% = percentage of resistant strains [9]: 93%
4 | CCn1cc(C(=O)O)c(=O)c2cc(F)c(N3CCNCC3)cc21 [Norfloxacin, norfloxacin] | 0 | 8.1 (≈ 25.4 µM) | 4.47 (≈ 14 µM) | 3.6 (≈ 11.3 µM) | 1.56 to 6.25 (≈ 4.89 to 19.6 µM) | 2.66 (≈ 8.33 µM) | 0.2 to 12.5 (≈ 0.626 to 39.1 µM) | 1.93 (≈ 6.04 µM) | 0.2 to 6.25 (≈ 0.626 to 19.6 µM) | 8.64 (≈ 27.1 µM) | 0.4 to 25 (≈ 1.25 to 78.3 µM) | 0 | 1.42 (≈ 4.45 µM) | 4.79 (≈ 15 µM) | 0.2 to 25 (≈ 0.626 to 78.3 µM) | 17.2 (≈ 53.9 µM) | 0.8 to 100 (≈ 2.51 to 313 µM) |  |  |  | MIC ([1]; Proteus spp, 42 strains, pH 7.2, reading 18 h after incubation at 37°C, read-out: range (MIC)): 0.2 to 100 µg/mL (≈ 0.626 to 313 µM); MIC ([2]; read-out: range (MIC)): 0.2 to 25 µg/mL (≈ 0.626 to 78.3 µM); MIC ([7]; read-out: range (MIC)): 0.4 to 3.12 µg/mL (≈ 1.25 to 9.77 µM)
5 | CCn1cc(C(=O)O)c(=O)c2cnc(N3CCNCC3)nc21 [Pipemidic acid, pipemidic acid] | 26 | 10.8 (≈ 35.6 µM) | 4.12 (≈ 13.6 µM) | 75 (≈ 247 µM) | 25 to 100 (≈ 82.4 to 330 µM) | 17.6 (≈ 58 µM) |  | 3.79 (≈ 12.5 µM) |  | 36.4 (≈ 120 µM) |  | 0 | 12.3 (≈ 40.6 µM) | 39.1 (≈ 129 µM) |  | 65.6 (≈ 216 µM) |  |  | 30 | 9 | R% = percentage of resistant strains [5]: 22%; R% = percentage of resistant strains [6]: 44%; MIC ([7]; read-out: range (MIC)): 1.56 to 25 µg/mL (≈ 5.14 to 82.4 µM); R% = percentage of resistant strains [8]: 30%; R% = percentage of resistant strains [9]: 66%
6 | CCn1cc(C(=O)O)c(=O)c2cnc(N3CCCC3)nc21 [Piromidic acid, piromidic acid] | 76 | 60 (≈ 208 µM) | 44.3 (≈ 154 µM) | 10.4 (≈ 36.1 µM) | 6.25 to 12.5 (≈ 21.7 to 43.4 µM) | 60.9 (≈ 211 µM) |  |  |  | 11.2 (≈ 38.8 µM) |  | 50 | 38.7 (≈ 134 µM) | 39.1 (≈ 135 µM) |  | 100 (≈ 347 µM) |  |  | 45 | 36 | R% = percentage of resistant strains [5]: 61%; R% = percentage of resistant strains [6]: 69%; R% = percentage of resistant strains [8]: 60%; R% = percentage of resistant strains [9]: 87%
7 | CCn1cc(C(=O)O)c(=O)c2cc(F)c(N3CCNCC3)nc21 [enoxacin] |  |  |  |  |  |  |  |  |  |  |  |  |  |  |  |  |  | 0 |  |  | 
